According to US9241488B2, “Azole derivative, method for producing azole derivative, and intermediate compound” (KUREHA CORPORATION, priority 2011, dated 2016):
Where two headings read alike, the source gives them in different places.

Legend:
[1] = tested on: wheat leaf blight-causing microorganisms; assay: Anti-bacterial effect on wheat leaf blight-causing microorganisms (PDA plate, mycelial growth inhibition); assay type: cell-based, Septoria tritici; conditions: 1.25 mg/L in PDA plate medium, 25° C., 14 days
Description: In Test Examples, an anti-bacterial effect of a compound in accordance with the present invention on the wheat leaf blight-causing microorganisms was tested, and was compared with the anti-bacterial effect of a comparative compound (1).
A dimethyl sulfoxide solution (0.6 ml) containing a compound in accordance with the present invention was added to a PDA medium (potato dextrose agar medium) (60 ml) having about 60° C., and the resultant mixture was mixed thoroughly in a 100-ml conical flask. The mixture was poured into a dish, and was solidified. […]
On the other hand, a subject microorganism previously cultured on a plate medium was cut out with use of a cork borer whose diameter was 4 mm, and the wheat leaf blight-causing microorganism on the plate medium thus cut out was inoculated to the chemical-containing plate medium described above. After such inoculation, the chemical-containing plate medium was incubated at 25° C. for 14 days, and then diameters of its flora were measured. A % mycelial growth inhibition was calculated with use of the formula. R=100(dc−dt)/dc (where R=% mycelial extension inhibition, dc=flora diameter in untreated plate, dt=flora diameter in treated plate)
The results obtained as described above were evaluated on a five-point scale according to the following criteria.
• 5: % Mycerial growth inhibition of 80% or higher • 4: % Mycerial growth inhibition of less than 80 to 60% or higher • 3: % Mycerial growth inhibition of less than 60 to 40% or higher • 2: % Mycerial growth inhibition of less than 40 to 20% or higher • 1: % Mycerial growth inhibition of less than 20%

[2] = tested on: Wheat Septoria nodorum blotch microorganism (Phaeosphaeria nodorum); assay: Anti-bacterial effect of V′ compounds on various microorganisms (plate medium), P.n; assay type: cell-based; conditions: 5 mg/L
G.g = assay: Anti-bacterial effect of V′ compounds on various microorganisms (plate medium), G.g; assay type: cell-based; conditions: 5 mg/L
[3] = tested on: Barley stripe (Pyrenophora graminea); assay: Anti-bacterial effect of V′ compounds on various microorganisms (plate medium), P.g; assay type: cell-based; conditions: 5 mg/L
[4] = tested on: Rice blast (Pyricularia oryzae); assay type: cell-based; conditions: 5 mg/L
[5] = tested on: Wheat leaf blight (Septoria tritici); assay: Anti-bacterial effect of V′ compounds on various microorganisms (plate medium), S.t; assay type: cell-based; conditions: 5 mg/L
[6] = tested on: Barley leaf blotch (Rhynchosporium secalis); assay: Anti-bacterial effect of V′ compounds on various microorganisms (plate medium), R. sec; assay type: cell-based; conditions: 5 mg/L
[7] = tested on: Snow mold of winter wheat (Microdochium nivale); assay: Anti-bacterial effect of V′ compounds on various microorganisms (plate medium), M.n; assay type: cell-based; conditions: 5 mg/L
[8] = tested on: Swollen rice seedling (Rhizopus oryzae); assay: Anti-bacterial effect of V′ compounds on various microorganisms (plate medium), R.o; assay type: cell-based; conditions: 5 mg/L
[9] = tested on: wheat-brown-rust-causing microorganisms; assay: Controlling effect on wheat brown rust (spray, pot test); assay type: in vivo, Puccinia recondita; conditions: 1 mg/L sprayed at 1,000 L/ha, wheat NORIN No. 61, 9 to 14 days after inoculation
Description: Onto a wheat plant (cultivar: NORIN No. 61) grown to the two-leaf stage with use of a square plastic pot (6 cm×6 cm), a wettable formulation such as Formulation Example 1 which was diluted and suspended in water at a concentration of 1 mg/L was sprayed at a rate of 1,000 L/ha. The sprayed leaves were air-dried, and inoculated with spore suspension of wheat-brown-rust-causing microorganisms (adjusted at 200 spores/vision, […] was added at 60 ppm) by spraying, and kept at 25° C. and a high humidity for 48 hours. Thereafter, the plant was kept in a greenhouse. Nine to fourteen days after inoculation, the wheat brown rust lesion degree was evaluated. The protective value was calculated by the following equation. Protective value (%)=(1-mean lesion degree in sprayed plot/mean lesion degree in unsprayed plot)×100 [table] [table]

[10] = tested on: Wheat Septoria nodorum blotch microorganism (Phaeosphaeria nodorum); assay: Anti-bacterial effect on various microorganisms (plate medium), P.n; assay type: cell-based
[11] = tested on: Wheat eye spot (Pseudocercoporella herpotrichoides); assay: Anti-bacterial effect on various microorganisms (plate medium), P.h; assay type: cell-based
[12] = tested on: Wheat fusarium blight (Fusarium graminearum); assay type: cell-based
[13] = tested on: Barley loose smut (Ustilago nuda); assay: Anti-bacterial effect on various microorganisms (plate medium), U.n; assay type: cell-based
[14] = tested on: Rice blast (Pyricularia oryzae); assay type: cell-based
[15] = tested on: Rice bakanae disease (Giberella fujikuroi); assay: Anti-bacterial effect on various microorganisms (plate medium), G.f; assay type: cell-based
[16] = tested on: Alternaria blotch (Alternaria alternata); assay: Anti-bacterial effect on various microorganisms (plate medium), A.m; assay type: cell-based
[17] = tested on: Sclerotinia rot (Sclerotinia sclerotiorum); assay: Anti-bacterial effect on various microorganisms (plate medium), S.s; assay type: cell-based
[18] = tested on: Gray mold (Botritis cinerea); assay: Anti-bacterial effect on various microorganisms (plate medium), B.c; assay type: cell-based
[19] = tested on: Cucumber fusarium wilt (Fusarium oxysporum); assay: Anti-bacterial effect on various microorganisms (plate medium), F.c; assay type: cell-based
[20] = tested on: Barley leaf blotch (Rhynchosporium secalis); assay: Anti-bacterial effect on various microorganisms (plate medium), R. sec; assay type: cell-based
[21] = tested on: Wheat pink snow mold (Microdochium nivale); assay: Anti-bacterial effect on various microorganisms (plate medium), M.n; assay type: cell-based
[22] = tested on: Rice bacterial seeding blight (Rhizopus oryzae); assay: Anti-bacterial effect on various microorganisms (plate medium), R.o; assay type: cell-based
[23] = tested on: wheat brown rust-causing microorganisms; assay: Controlling effect on wheat brown rust caused by seed treatment (pot test); assay type: in vivo, Puccinia recondita; conditions: 2 mg compound per 1 g wheat seeds, inoculated 21 days after seeding, evaluated 14 days after inoculation
Description: An efficacy against wheat brown rust was evaluated by performing a pot test. […] The pots were kept in a greenhouse with supplying water underneath. Twenty one days after the seeding, wheat brown rust-causing microorganisms was inoculated, and the pots were stored in a humidity chamber for 2 days. The pots were kept again in a greenhouse with supplying water underneath. Fourteen days after the inoculation, a lesion degree was evaluated, and a protective value was calculated. The protective value was calculated with use of the following formula, and was defined as a wheat brown rust protective value. Protective value=(1−lesion degree in treated plot/lesion degree in untreated plot)×100(%)

Row | SMILES | Growth inhibition grade [1] | Protective value [9] | Growth inhibition grade P.n ([10]; 1.25 mg/L) | Growth inhibition grade P.n ([10]; 5 mg/L) | Growth inhibition grade P.h ([11]; 1.25 mg/L) | Growth inhibition grade P.h ([11]; 5 mg/L) | Growth inhibition grade F.g ([12]; 1.25 mg/L) | Growth inhibition grade F.g ([12]; 5 mg/L) | Growth inhibition grade U.n ([13]; 1.25 mg/L) | Growth inhibition grade U.n ([13]; 5 mg/L) | Growth inhibition grade P.o ([14]; 1.25 mg/L) | Growth inhibition grade P.o ([14]; 5 mg/L) | Growth inhibition grade G.f ([15]; 1.25 mg/L) | Growth inhibition grade G.f ([15]; 5 mg/L) | Growth inhibition grade A.m ([16]; 1.25 mg/L) | Growth inhibition grade A.m ([16]; 5 mg/L) | Growth inhibition grade S.s ([17]; 1.25 mg/L) | Growth inhibition grade S.s ([17]; 5 mg/L) | Growth inhibition grade B.c ([18]; 1.25 mg/L) | Growth inhibition grade B.c ([18]; 5 mg/L) | other results
1 | CC1(C)OCC2(CCC(Cc3ccc(Cl)cc3)C2(O)Cn2cncn2)CO1 (stereo not drawn) [Compound V′-a-cis, 2-(4-chlorobenzyl)-8,8-dimethyl-1-[1,2,4]triazole-1-ylmethyl-7,9-dioxaspiro[4,5]decane-1-ol] | – | – | – | – | – | – | – | – | – | – | – | – | – | – | – | – | – | – | – | – | inhibition at 1.25 µg/mL ([1]; 336 h, read-out: Growth inhibition grade): > 80%; Anti-bacterial effect index against various microorganisms P.n [2]: 5 (% Mycerial growth inhibition of 80% or higher); Anti-bacterial effect index against various microorganisms G.g (G.g): 5 (% Mycerial growth inhibition of 80% or higher); Anti-bacterial effect index against various microorganisms P.g [3]: 5 (% Mycerial growth inhibition of 80% or higher); Anti-bacterial effect index against various microorganisms P.o [4]: 5 (% Mycerial growth inhibition of 80% or higher); Anti-bacterial effect index against various microorganisms S.t [5]: 5 (% Mycerial growth inhibition of 80% or higher); Anti-bacterial effect index against various microorganisms R. sec [6]: 5 (% Mycerial growth inhibition of 80% or higher); Anti-bacterial effect index against various microorganisms M.n [7]: 5 (% Mycerial growth inhibition of 80% or higher); Anti-bacterial effect index against various microorganisms R.o [8]: 5 (% Mycerial growth inhibition of 80% or higher)
2 | COC[C@]1(CCl)CC[C@@H](Cc2ccc(Cl)cc2)[C@]1(O)Cn1cncn1 (racemic) [Compound I-16a, (1RS,2RS,5SR)-5-(4-chlorobenzyl)-2-chloromethyl-2-methoxymethyl-1H-[1,2,4]triazole-1-ylmethylcyclopentanol] | 5 (% Mycerial growth inhibition of 80% or higher) | 4 (61 to 80) | 5 (% Mycerial growth inhibition of 80% or higher) | 5 (% Mycerial growth inhibition of 80% or higher) | 4 (% Mycerial growth inhibition of less than 80 to 60% or higher) | 5 (% Mycerial growth inhibition of 80% or higher) | 5 (% Mycerial growth inhibition of 80% or higher) | 5 (% Mycerial growth inhibition of 80% or higher) | 5 (% Mycerial growth inhibition of 80% or higher) | 5 (% Mycerial growth inhibition of 80% or higher) | 5 (% Mycerial growth inhibition of 80% or higher) | 5 (% Mycerial growth inhibition of 80% or higher) | 5 (% Mycerial growth inhibition of 80% or higher) | 5 (% Mycerial growth inhibition of 80% or higher) | 4 (% Mycerial growth inhibition of less than 80 to 60% or higher) | 5 (% Mycerial growth inhibition of 80% or higher) | 5 (% Mycerial growth inhibition of 80% or higher) | 5 (% Mycerial growth inhibition of 80% or higher) | 5 (% Mycerial growth inhibition of 80% or higher) | 5 (% Mycerial growth inhibition of 80% or higher) | Growth inhibition grade F.c ([19]; 1.25 mg/L): 5 (% Mycerial growth inhibition of 80% or higher); Growth inhibition grade F.c ([19]; 5 mg/L): 5 (% Mycerial growth inhibition of 80% or higher); Growth inhibition grade R. sec ([20]; 1.25 mg/L): 5 (% Mycerial growth inhibition of 80% or higher); Growth inhibition grade R. sec ([20]; 5 mg/L): 5 (% Mycerial growth inhibition of 80% or higher); Growth inhibition grade M.n ([21]; 1.25 mg/L): 5 (% Mycerial growth inhibition of 80% or higher); Growth inhibition grade M.n ([21]; 5 mg/L): 5 (% Mycerial growth inhibition of 80% or higher); Growth inhibition grade R.o ([22]; 1.25 mg/L): 5 (% Mycerial growth inhibition of 80% or higher); Growth inhibition grade R.o ([22]; 5 mg/L): 5 (% Mycerial growth inhibition of 80% or higher); wheat brown rust protective value [23]: 100%
3 | CCOC[C@]1(CCl)CC[C@@H](Cc2ccccc2)[C@]1(O)Cn1cncn1 (racemic) [Compound I-234, (1RS,2RS,5SR)-5-benzyl-2-chloromethyl-2-ethoxymethyl-1H-[1,2,4]triazole-1-ylmethylcyclopentanol] | 5 (% Mycerial growth inhibition of 80% or higher) | 4 (61 to 80) | 5 (% Mycerial growth inhibition of 80% or higher) | 5 (% Mycerial growth inhibition of 80% or higher) | 4 (% Mycerial growth inhibition of less than 80 to 60% or higher) | 5 (% Mycerial growth inhibition of 80% or higher) | 5 (% Mycerial growth inhibition of 80% or higher) | 5 (% Mycerial growth inhibition of 80% or higher) | 5 (% Mycerial growth inhibition of 80% or higher) | 5 (% Mycerial growth inhibition of 80% or higher) | 5 (% Mycerial growth inhibition of 80% or higher) | 5 (% Mycerial growth inhibition of 80% or higher) | 5 (% Mycerial growth inhibition of 80% or higher) | 5 (% Mycerial growth inhibition of 80% or higher) | 4 (% Mycerial growth inhibition of less than 80 to 60% or higher) | 5 (% Mycerial growth inhibition of 80% or higher) | 5 (% Mycerial growth inhibition of 80% or higher) | 5 (% Mycerial growth inhibition of 80% or higher) | 5 (% Mycerial growth inhibition of 80% or higher) | 5 (% Mycerial growth inhibition of 80% or higher) | Growth inhibition grade F.c ([19]; 1.25 mg/L): 5 (% Mycerial growth inhibition of 80% or higher); Growth inhibition grade F.c ([19]; 5 mg/L): 5 (% Mycerial growth inhibition of 80% or higher); Growth inhibition grade R. sec ([20]; 1.25 mg/L): 5 (% Mycerial growth inhibition of 80% or higher); Growth inhibition grade R. sec ([20]; 5 mg/L): 5 (% Mycerial growth inhibition of 80% or higher); Growth inhibition grade M.n ([21]; 1.25 mg/L): 5 (% Mycerial growth inhibition of 80% or higher); Growth inhibition grade M.n ([21]; 5 mg/L): 5 (% Mycerial growth inhibition of 80% or higher); Growth inhibition grade R.o ([22]; 1.25 mg/L): 5 (% Mycerial growth inhibition of 80% or higher); Growth inhibition grade R.o ([22]; 5 mg/L): 5 (% Mycerial growth inhibition of 80% or higher)
